US9333205B2, “Isoxazolo-quinazolines as modulators of protein kinase activity” (NERVIANO MEDICAL SCIENCES S.R.L., priority 2010, dated 2016)

Tests used:
PERK = PERK (Homo sapiens (Human), UniProt Q9NZJ5); test: Biochemical trans-phosphorylation (Dowex, 33P-γ-ATP) assay for inhibitors of PERK kinase activity; conditions: PERK 8 nM, 52 microM ATP, eIF2alfa-tide 300 microM
Method: Cloning, Expression and Purification of Recombinant PERK Cytoplasmic Domain Protein.
PERK cytoplasmic domain (corresponding to residues 540-1115; Swiss-Prot accession number Q9NZJ5) was PCR amplified using the following forward oligonucleotide:
Recombinant protein was produced in BL21(DE3)pLysS strain, in auto-induction medium, at 21° C. for 24 hours (see F. W. Studier, “Protein production by auto-induction in high density shaking cultures”, Protein Expression and Purification (2005) vol. 41:207-234). The cells were recovered by centrifugation, and the pellet frozen at −80° C. For purification of recombinant protein, pellet was thawed, resuspended in lysis buffer (Tris-HCl 50 mM pH 7.6, NaCl 250 mM, Glycerol 10%, CHAPS 0.2%, Imidazole 5 mM, protease and phosphatase inhibitors) and lysed by Gaulin homogenizer. Lysate was cleared by centrifugation and loaded on a Ni-NTA and the eluate on a GST affinity column. After extensive wash, recombinant protein was cleaved by a specific protease and eluted. Recombinant PERK cytoplasmic domain obtained by this protocol was >85% pure by coomassie stained SDS-PAGE.
(§1) Biochemical Assay for Inhibitors of MPS1 and PERK Kinase Activity
(§2) The inhibitory activity of putative kinase inhibitors and the potency of selected compounds were determined using a trans-phosphorylation assay.
Specific peptide or protein substrates are trans-phosphorylated by their specific ser-thr or tyr kinase in the presence of ATP traced with ^33P-γ-ATP, and in the presence of their own optimal buffer and cofactors.
At the end of the phosphorylation reaction, more than 98% unlabeled ATP and radioactive ATP is captured by an excess of the ion exchange dowex resin; the resin then settles down to the bottom of the reaction plate by gravity.
Supernatant is subsequently withdrawn and transferred into a counting plate, then evaluated by β-counting.
The buffer for PERK assay was composed of HEPES 50 mM, at pH 7.5 with 3 mM MgCl2, 1 mM DTT, 3 microM Na3VO4, and 0.2 mg/mL BSA […]

MPS1 = MPS1 (Homo sapiens (Human), UniProt P33981); test: Biochemical trans-phosphorylation (Dowex, 33P-γ-ATP) assay for inhibitors of MPS1 kinase activity; conditions: MPS1 5 nM, 15 microM ATP, P38-βtide 200 microM
Source text: Cloning, Expression and Purification of Recombinant MPS1 Full Length Protein.
MPS1 full length (corresponding to residues 2-857 of the full length sequence, see Swiss-Prot accession number P33981) was PCR amplified from the full-length human MPS1 gene present in house as clone pGEX4t_MPS1.
Baculoviruses were generated by cotransfecting Sf9 insect cells with the expression vector and the viral DNA using the BaculoGold® transfection kit (Pharmingen). Viral supernatant was recovered after 5 days and subjected to 3 rounds of amplification to increase viral titer. Recombinant protein was produced by infecting High5 insect cells. After 72 hours of infection at 21° C., cells were recovered, pelletted and freezed at −80° C. For purification of recombinant protein, pellet was thawed, resuspended in lysis buffer (PBS, NaCl 150 mM, Glycerol 10%, CHAPS 0.1%, DTT 20 mM, protease and phosphatase inhibitors) and lysed by Gaulin. Lysate was cleared by centrifugation and loaded on a GST affinity column. After extensive wash, recombinant protein was cleaved by a specific protease and eluted by incubation.
To get a fully activated enzyme, the protein was then subjected to auto-phosphorylation in presence of ATP 1 mM at 25° C. for 2 hours in kinase buffer (Hepes pH7.5 50 mM, MgCl2 2.5 mM, MnCl2 1 mM, DTT 1 mM, phosphatase inhibitors); ATP was then removed whit a desalting column.
as §1, §2
Specific peptide or protein substrates are trans-phosphorylated by their specific ser-thr or tyr kinase in the presence of ATP traced with ^33P-γ-ATP, and in the presence of their own optimal buffer and cofactors. […]
Supernatant is subsequently withdrawn and transferred into a counting plate, then evaluated by β-counting. […]

MPS1, sequence (P33981 2-857): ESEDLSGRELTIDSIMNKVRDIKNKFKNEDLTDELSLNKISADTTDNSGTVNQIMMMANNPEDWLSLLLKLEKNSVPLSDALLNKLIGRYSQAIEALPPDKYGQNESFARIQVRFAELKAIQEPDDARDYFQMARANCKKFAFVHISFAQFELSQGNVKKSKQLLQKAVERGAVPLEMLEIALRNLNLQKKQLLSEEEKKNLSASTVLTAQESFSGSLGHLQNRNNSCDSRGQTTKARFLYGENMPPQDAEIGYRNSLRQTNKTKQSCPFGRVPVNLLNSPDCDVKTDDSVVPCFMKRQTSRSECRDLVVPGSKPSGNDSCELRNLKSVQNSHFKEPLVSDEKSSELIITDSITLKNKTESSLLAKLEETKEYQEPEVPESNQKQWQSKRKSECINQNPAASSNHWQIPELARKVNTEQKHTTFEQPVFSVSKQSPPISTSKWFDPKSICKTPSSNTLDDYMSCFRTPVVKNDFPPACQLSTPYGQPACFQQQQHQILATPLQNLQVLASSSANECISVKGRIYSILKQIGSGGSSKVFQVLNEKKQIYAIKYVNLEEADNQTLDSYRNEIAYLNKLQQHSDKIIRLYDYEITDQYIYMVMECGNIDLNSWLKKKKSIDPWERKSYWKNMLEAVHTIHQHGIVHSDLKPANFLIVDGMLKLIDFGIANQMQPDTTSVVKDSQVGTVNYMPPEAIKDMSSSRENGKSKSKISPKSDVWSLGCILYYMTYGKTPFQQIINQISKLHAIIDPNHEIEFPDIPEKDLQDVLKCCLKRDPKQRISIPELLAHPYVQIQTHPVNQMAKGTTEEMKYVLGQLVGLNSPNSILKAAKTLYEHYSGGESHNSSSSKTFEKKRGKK
PERK, sequence (Q9NZJ5 540-1115): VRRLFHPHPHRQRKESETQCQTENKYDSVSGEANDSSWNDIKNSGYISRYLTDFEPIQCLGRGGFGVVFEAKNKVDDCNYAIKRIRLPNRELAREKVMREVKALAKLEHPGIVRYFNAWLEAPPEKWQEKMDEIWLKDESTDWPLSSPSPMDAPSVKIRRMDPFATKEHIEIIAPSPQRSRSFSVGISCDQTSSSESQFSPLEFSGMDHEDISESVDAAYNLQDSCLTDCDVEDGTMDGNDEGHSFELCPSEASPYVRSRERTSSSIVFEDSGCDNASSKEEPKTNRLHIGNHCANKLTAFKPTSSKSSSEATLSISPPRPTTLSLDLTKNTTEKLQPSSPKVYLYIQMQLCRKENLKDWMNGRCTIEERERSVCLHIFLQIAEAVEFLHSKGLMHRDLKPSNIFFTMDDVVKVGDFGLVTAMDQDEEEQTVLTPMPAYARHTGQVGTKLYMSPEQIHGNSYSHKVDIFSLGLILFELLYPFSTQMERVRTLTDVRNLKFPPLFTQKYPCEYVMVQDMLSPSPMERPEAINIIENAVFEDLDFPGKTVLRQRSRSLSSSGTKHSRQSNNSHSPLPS

SMILES	IC50 (PERK) [nM]	IC50 (MPS1) [nM]
COc1cc(C(=O)NC2CCN(C)CC2)ccc1Nc1ncc2c(n1)-c1noc(C(N)=O)c1C(C)(C)C2 [Compound 30, 8-({2-methoxy-4-[(1-methylpiperidin-4-yl)carbamoyl]phenyl}amino)-4,4-dimethyl-4,5-dihydroisoxazolo[4,3-h]quinazoline-3-carboxamide]	400	680
COc1cc(C(=O)NC2CCN(C)CC2)ccc1Nc1ncc2c(n1)-c1onc(C(N)=O)c1CC2(C)C [Compound 55, 8-({2-methoxy-4-[(1-methylpiperidin-4-yl)carbamoyl]phenyl}amino)-5,5-dimethyl-4,5-dihydroisoxazolo[4,5-h]quinazoline-3-carboxamide]	510	3440
COc1cc(C(=O)NC2CCN(C)CC2)ccc1Nc1ncc2c(n1)-c1onc(C(=O)N[C@@H](CN)c3ccccc3)c1CC2(C)C [Compound 61, N-[(1R)-2-amino-1-phenylethyl]-8-({2-methoxy-4-[(1-methylpiperidin-4-yl)carbamoyl]phenyl}amino)-5,5-dimethyl-4,5-dihydroisoxazolo[4,5-h]quinazoline-3-carboxamide]	240	360
